Our source for the EC50 and CC50 values is patent US20230107941A1, “HEPATITIS B CAPSID ASSEMBLY MODULATORS” (Venatorx Pharmaceuticals, Inc., priority 2019, published 2023).

One data set relates to HBV. Nature of the data set: In vitro antiviral assay: anti-HBV replication in HepAD38 cells (extracellular HBV DNA by QPCR). Type of data set: cell-based, hepatitis B virus (genotype D, serotype ayw). Particulars: Hepatitis B virus, HePAD38, 168 h, 7 days incubation, extracellular HBV DNA by QPCR, read-out: Anti-HBV EC50. The essentials:
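Read-out is extracellular HBV DNA (copies/mL, QPCR standard curve) after 7-day exposure of tet-free HepAD38 cells to 10-fold dilutions from 1 μM down to 10 pM. Values normalised to DMSO vehicle; EC50 from 4-parameter nonlinear regression, with entecavir validating each run.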

Data set [1] is described as follows: In vitro cytotoxicity assay (MTT cell viability) in HepG2 cells. Type of data set: cell-based, human. Particulars: human. The essentials: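 CC50 was derived by 4-parameter fit of viability relative to vehicle controls, measured as MTT formazan absorbance at 492 nm after 3–4 h of reagent and DMSO solubilization. Before that, HepG2 cells seeded overnight at 20,000/well were incubated 7 days at 37°C with compound from 30 μM down to 1.0 nM in half-log steps.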

One may read the EC50 as the midpoint of the concentration-response curve. What is called CC50 is the concentration that lowers cell viability or growth by half. A higher CC50 goes with lower toxicity to the cells. In the case of `CC(=O)N1CC[C@@H](NC(=O)C(=O)c2c(C)c(C(=O)Nc3ccc(F)c(C)c3)c(C)n2C)C(C)(C)C1` [Example 149, (R)-5-(2-((1-acetyl-3,3-dimethylpiperidin-4-yl)amino)-2-oxoacetyl)-N-(4-fluoro-3-methylphenyl)-1,2,4-trimethyl-1H-pyrrole-3-carboxamide], in the data set with HBV, the EC50 was below 50 nM. For the same compound, in data set [1], the half-maximal cytotoxic concentration (CC50) at 7 days is above 30000 nM.

For the compound `Cc1cc(NC(=O)c2c(C)c(C(=O)C(=O)N[C@]3(C)C[C@H](O)C3)n(C)c2-c2cccnc2)ccc1F` [Example 150, N-(4-fluoro-3-methylphenyl)-5-(2-(((1s,3s)-3-hydroxy-1-methylcyclobutyl)amino)-2-oxoacetyl)-1,4-dimethyl-2-(pyridin-3-yl)-1H-pyrrole-3-carboxamide], the EC50 in the data set on HBV was above 1000 nM. In data set [1], this compound returned a half-maximal cytotoxic concentration (CC50) at 7 days above 30000 nM.

As to `Cc1cc(NC(=O)c2c(C)c(C(=O)C(=O)N[C@H]3CC[C@@H](S(C)(=O)=O)CC3)n(C)c2-c2cccnc2)ccc1F` [Example 151, N-(4-fluoro-3-methylphenyl)-1,4-dimethyl-5-(2-(((1s,4s)-4-(methylsulfonyl)cyclohexyl)amino)-2-oxoacetyl)-2-(pyridin-3-yl)-1H-pyrrole-3-carboxamide], in the data set with HBV, the EC50 was above 1000 nM. In data set [1], the CC50 at 7 days was above 30000 nM.

With `Cc1cc(NC(=O)c2c(C)c(C(=O)C(=O)N[C@]3(C)CC[C@H](O)CC3)n(C)c2-c2cccnc2)ccc1F` [Example 152, N-(4-fluoro-3-methylphenyl)-5-(2-(((1s,4s)-4-hydroxy-1-methylcyclohexyl)amino)-2-oxoacetyl)-1,4-dimethyl-2-(pyridin-3-yl)-1H-pyrrole-3-carboxamide], the concentration giving a half-maximal response (EC50) in the data set on HBV was above 1000 nM. In data set [1], this compound had a CC50 at 7 days above 30000 nM.

On to `Cc1cc(NC(=O)c2c(C)c(C(=O)C(=O)N[C@H]3CC[C@@H](O)CC3)n(C)c2-c2cccnc2)ccc1F` [Example 153, N-(4-fluoro-3-methylphenyl)-5-(2-(((1s,4s)-4-hydroxycyclohexyl)amino)-2-oxoacetyl)-1,4-dimethyl-2-(pyridin-3-yl)-1H-pyrrole-3-carboxamide], for which the EC50 in the data set on HBV is above 1000 nM. The same compound came in with a 50% cytotoxic concentration (CC50) at 7 days in data set [1] above 30000 nM.

On to `Cc1cc(NC(=O)c2c(C)c(C(=O)C(=O)NCC(C)(C)O)n(C)c2-c2cccnc2)ccc1F` [Example 154, N-(4-fluoro-3-methylphenyl)-5-(2-((2-hydroxy-2-methylpropyl)amino)-2-oxoacetyl)-1,4-dimethyl-2-(pyridin-3-yl)-1H-pyrrole-3-carboxamide], for which the EC50 in the data set on HBV is 50 to 499 nM. The CC50 at 7 days in data set [1] was above 30000 nM.

Consider `Cc1cc(NC(=O)c2c(C)c(C(=O)C(=O)N[C@]3(C)C[C@H](O)C3)n(C)c2-c2ccccn2)ccc1F` [Example 155, N-(4-fluoro-3-methylphenyl)-5-(2-(((1s,3s)-3-hydroxy-1-methylcyclobutyl)amino)-2-oxoacetyl)-1,4-dimethyl-2-(pyridin-2-yl)-1H-pyrrole-3-carboxamide], for which, in the data set on HBV, the EC50 is above 1000 nM. The compound also showed a CC50 at 7 days in data set [1] above 30000 nM.

For the compound `Cc1cc(NC(=O)c2c(C)c(C(=O)C(=O)N[C@H]3CC[C@@H](S(C)(=O)=O)CC3)n(C)c2-c2ccccn2)ccc1F` [Example 156, N-(4-fluoro-3-methylphenyl)-1,4-dimethyl-5-(2-(((1s,4s)-4-(methylsulfonyl)cyclohexyl)amino)-2-oxoacetyl)-2-(pyridin-2-yl)-1H-pyrrole-3-carboxamide], in the data set on HBV, the concentration for a half-maximal effect (EC50) was above 1000 nM. In addition, the half-maximal cytotoxic concentration (CC50) at 7 days in data set [1] was above 30000 nM.

As for `Cc1cc(NC(=O)c2c(C)c(C(=O)C(=O)N[C@]3(C)CC[C@H](O)CC3)n(C)c2-c2ccccn2)ccc1F` [Example 157, N-(4-fluoro-3-methylphenyl)-5-(2-(((1s,4s)-4-hydroxy-1-methylcyclohexyl)amino)-2-oxoacetyl)-1,4-dimethyl-2-(pyridin-2-yl)-1H-pyrrole-3-carboxamide], in the data set on HBV, the concentration giving a half-maximal response (EC50) was 50 to 499 nM. The half-maximal cytotoxic concentration (CC50) at 7 days in data set [1] is above 30000 nM.

As for `Cc1cc(NC(=O)c2c(C)c(C(=O)C(=O)N[C@H]3CC[C@@H](O)CC3)n(C)c2-c2ccccn2)ccc1F` [Example 158, N-(4-fluoro-3-methylphenyl)-5-(2-(((1s,4s)-4-hydroxycyclohexyl)amino)-2-oxoacetyl)-1,4-dimethyl-2-(pyridin-2-yl)-1H-pyrrole-3-carboxamide], the EC50 with HBV is above 1000 nM. This compound yielded a CC50 at 7 days in data set [1] above 30000 nM.

As for `Cc1cc(NC(=O)c2c(C)c(C(=O)C(=O)NCC(C)(C)O)n(C)c2-c2ccccn2)ccc1F` [Example 159, N-(4-fluoro-3-methylphenyl)-5-(2-((2-hydroxy-2-methylpropyl)amino)-2-oxoacetyl)-1,4-dimethyl-2-(pyridin-2-yl)-1H-pyrrole-3-carboxamide], the half-maximal effective concentration (EC50) in the data set with HBV is above 1000 nM. The compound also came in with a CC50 at 7 days in data set [1] above 30000 nM.

Consider `Cc1cc(NC(=O)c2c(C)c(C(=O)C(=O)N[C@H]3CC[C@@H](S(C)(=O)=O)CC3)n(C)c2-c2ccncc2)ccc1F` [Example 160, N-(4-fluoro-3-methylphenyl)-1,4-dimethyl-5-(2-(((1s,4s)-4-(methylsulfonyl)cyclohexyl)amino)-2-oxoacetyl)-2-(pyridin-4-yl)-1H-pyrrole-3-carboxamide], for which, in the data set with HBV, the 50% effective concentration (EC50) is above 1000 nM. Also, the CC50 at 7 days in data set [1] is above 30000 nM.

`Cc1cc(NC(=O)c2c(C)c(C(=O)C(=O)N[C@]3(C)C[C@H](O)C3)n(C)c2-c2ccncc2)ccc1F` [Example 161, N-(4-fluoro-3-methylphenyl)-5-(2-(((1s,3s)-3-hydroxy-1-methylcyclobutyl)amino)-2-oxoacetyl)-1,4-dimethyl-2-(pyridin-4-yl)-1H-pyrrole-3-carboxamide]: in the data set with HBV, the concentration for a half-maximal effect (EC50) is above 1000 nM. Moreover, the CC50 at 7 days in data set [1] is above 30000 nM.

Consider `Cc1cc(NC(=O)c2c(C)c(C(=O)C(=O)N[C@]3(C)CC[C@H](O)CC3)n(C)c2-c2ccncc2)ccc1F` [Example 162, N-(4-fluoro-3-methylphenyl)-5-(2-(((1s,4s)-4-hydroxy-1-methylcyclohexyl)amino)-2-oxoacetyl)-1,4-dimethyl-2-(pyridin-4-yl)-1H-pyrrole-3-carboxamide], for which the EC50 in the data set on HBV was above 1000 nM. In addition, the half-maximal cytotoxic concentration (CC50) at 7 days in data set [1] is above 30000 nM.

`Cc1cc(NC(=O)c2c(C)c(C(=O)C(=O)N[C@H]3CC[C@@H](O)CC3)n(C)c2-c2ccncc2)ccc1F` [Example 163, N-(4-fluoro-3-methylphenyl)-5-(2-(((1s,4s)-4-hydroxycyclohexyl)amino)-2-oxoacetyl)-1,4-dimethyl-2-(pyridin-4-yl)-1H-pyrrole-3-carboxamide]: in the data set on HBV, the EC50 is above 1000 nM. In data set [1], this compound returned a cytotoxic concentration (CC50) at 7 days above 30000 nM.

Consider `Cc1cc(NC(=O)c2c(C)c(C(=O)C(=O)NCC(C)(C)O)n(C)c2-c2ccncc2)ccc1F` [Example 164, N-(4-fluoro-3-methylphenyl)-5-(2-((2-hydroxy-2-methylpropyl)amino)-2-oxoacetyl)-1,4-dimethyl-2-(pyridin-4-yl)-1H-pyrrole-3-carboxamide], for which the EC50 in the data set with HBV was above 1000 nM. Besides, the CC50 at 7 days in data set [1] was above 30000 nM.

Regarding `CC(=O)N1CC[C@@H](NC(=O)C(=O)c2c(C)c(C(=O)Nc3ccc(F)c(C)c3)c(C)n2C)C[C@H]1C` [Example 165, 5-(2-(((2R,4R)-1-acetyl-2-methylpiperidin-4-yl)amino)-2-oxoacetyl)-N-(4-fluoro-3-methylphenyl)-1,2,4-trimethyl-1H-pyrrole-3-carboxamide], the concentration giving a half-maximal response (EC50) in the data set on HBV is below 50 nM. In data set [1], this compound returned a CC50 at 7 days above 30000 nM.

For `CC(=O)N1CC[C@H](NC(=O)C(=O)c2c(C)c(C(=O)Nc3ccc(F)c(C)c3)c(C)n2C)C[C@@H]1C` [Example 166, 5-(2-(((2S,4S)-1-acetyl-2-methylpiperidin-4-yl)amino)-2-oxoacetyl)-N-(4-fluoro-3-methylphenyl)-1,2,4-trimethyl-1H-pyrrole-3-carboxamide], the half-maximal effective concentration (EC50) in the data set on HBV was 50 to 499 nM. In data set [1], this compound came in with a CC50 at 7 days above 30000 nM.

`CC(=O)N1CC[C@@H](NC(=O)C(=O)c2c(C)c(C(=O)Nc3ccc(F)c(C)c3)c(C)n2C)[C@H](O)C1` [Example 167, 5-(2-(((3R,4R)-1-acetyl-3-hydroxypiperidin-4-yl)amino)-2-oxoacetyl)-N-(4-fluoro-3-methylphenyl)-1,2,4-trimethyl-1H-pyrrole-3-carboxamide]: the concentration for a half-maximal effect (EC50) in the data set with HBV was 500 to 1000 nM. In addition, the CC50 at 7 days in data set [1] was above 30000 nM.

On to `Cc1cc(NC(=O)c2c(C)c(C(=O)C(=O)N[C@]3(C)CC[C@@H](O)CC3)n(C)c2C)cc(C)c1F` [Example 168, N-(4-fluoro-3,5-dimethylphenyl)-5-(2-(((1r,4r)-4-hydroxy-1-methylcyclohexyl)amino)-2-oxoacetyl)-1,2,4-trimethyl-1H-pyrrole-3-carboxamide], for which, in the data set with HBV, the concentration for a half-maximal effect (EC50) is below 50 nM. Also, the CC50 at 7 days in data set [1] is above 30000 nM.

Take `Cc1cc(Cl)cc(NC(=O)c2c(C)c(C(=O)C(=O)N[C@]3(C)CC[C@@H](O)CC3)n(C)c2C)c1` [Example 169, N-(3-chloro-5-methylphenyl)-5-(2-(((1r,4r)-4-hydroxy-1-methylcyclohexyl)amino)-2-oxoacetyl)-1,2,4-trimethyl-1H-pyrrole-3-carboxamide]: in the data set on HBV, the EC50 was below 50 nM. In data set [1], this compound registered a half-maximal cytotoxic concentration (CC50) at 7 days of 5000 to 30000 nM.

As for `Cc1c(C(=O)Nc2cccc(C#N)c2)c(C)n(C)c1C(=O)C(=O)N[C@]1(C)CC[C@@H](O)CC1` [Example 170, N-(3-cyanophenyl)-5-(2-(((1r,4r)-4-hydroxy-1-methylcyclohexyl)amino)-2-oxoacetyl)-1,2,4-trimethyl-1H-pyrrole-3-carboxamide], the EC50 with HBV is below 50 nM. Also, the CC50 at 7 days in data set [1] is above 30000 nM.
